Test results from PMC6253949, “The Inhibitory Action of Kohamaic Acid A Derivatives on Mammalian DNA Polymerase β” (Molecules, 2008).
Like-named read-outs stand apart in the source and are kept apart here. One block for each molecule: values may come before it.

Tests used:
Calf DNA polymerase α [1] = target: T1, Calf DNA polymerase α (Bos taurus, UniProt A0AAA9THK8); parameters: method as in PMID 12758147; details: reported previously; read-out: IC50 value, pol α; cited from earlier work
Rat DNA polymerase β [2] = target: T2, Rat DNA polymerase β (Rattus norvegicus, UniProt P06766); parameters: method as in PMID 12758147; details: reported previously; read-out: IC50 value, pol β; cited from earlier work
T2 construct: made in house; host or cells: E. coli JMpβ5

Calf DNA polymerase α [3] = target: T1, Calf DNA polymerase α; assay: DNA polymerase assay, calf pol α; type: biochemical
Text: (§1) Pol α was purified from calf thymus by immuno-affinity column chromatography as described by Tamai et al.. Recombinant rat pol β was purified from E. coli JMpβ5 as described by Date et al.. The human pol γ catalytic gene was cloned into pFastBac. Histidine-tagged enzyme was expressed using the BAC-TO-BAC HT Baculovirus Expression System according to the supplier's manual (LIFE TECHNOLOGIES, MD, USA) and purified using ProBoundresin (Invitrogen Japan, Tokyo, Japan). Human pols δ and ε were purified by the nuclear fractionation of human peripheral blood cancer cells (Molt-4) using the second subunit of pols δ and ε-conjugated affinity column chromatography, respectively. Recombinant human pols η and ι tagged with His6 at their C-terminal were expressed in SF9 insect cells using the baculovirus expression system, and were purified as described previously. A truncated form of pol κ (i.e., hDINB1DC) with 6 x His-tags attached at the C-terminal was overproduced using the BAC-to-BAC Baculovirus Expression System kit (GIBCO BRL, MD, USA) and purified as described previously. Recombinant human His-pol λ was overexpressed and purified according to a method described previously. Fish pol δ was purified from the testis of cherry salmon (Oncorhynchus masou). Pol I (α-like) from a higher plant, cauliflower inflorescence, was purified according to the methods outlined by Sakaguchi et al.. The Klenow fragment of pol I from E. coli was purchased from Worthington Biochemical Corp. (Freehold, NJ, USA). Taq pol, T4 pol, T7 RNA polymerase and T4 polynucleotide kinase were purchased from Takara (Kyoto, Japan). Bovine pancreas deoxyribonuclease I (DNase I) was obtained from Stratagene Cloning Systems (La Jolla, CA, USA).
(§2) The reaction mixtures for pol α, pol β, fish pol δ, plant pol I (α-like) and prokaryotic pols were described previously, and those for pol γ, and pols δ and ε were as described by Umeda et al. and Ogawa et al., respectively. The reaction mixtures for pols η, ι and κ were the same as for pol α, and the reaction mixture for pol λ was the same as that for pol β.
For pols, poly(dA)/oligo(dT)12-18 (A/T = 2/1) and dTTP were used as the DNA template-primer and nucleotide (i.e., dNTP) substrate, respectively. KA-A analogues (i.e., compounds 1–12) were dissolved in distilled dimethyl sulfoxide (DMSO) at various concentrations and sonicated for 30 sec. Aliquots of 4 μL of sonicated samples were mixed with 16 μL of each enzyme (final amount 0.05 units) in 50 mM Tris-HCl (pH 7.5) containing 1 mM dithiothreitol, 50% glycerol and 0.1 mM EDTA, and kept at 0 °C for 10 min. […] Activity without the inhibitor was considered 100%, and the remaining activity at each concentration of the inhibitor was determined relative to this value. […]

Rat DNA polymerase β [4] = target: T2, Rat DNA polymerase β; assay: DNA polymerase assay, rat pol β; type: biochemical; details: 10 and 100 μM of compound (Figure 2B)
Text: as §1, §2
For pols, poly(dA)/oligo(dT)12-18 (A/T = 2/1) and dTTP were used as the DNA template-primer and nucleotide (i.e., dNTP) substrate, respectively. KA-A analogues (i.e., compounds 1–12) were dissolved in distilled dimethyl sulfoxide (DMSO) at various concentrations and sonicated for 30 sec. Aliquots of 4 μL of sonicated samples were mixed with 16 μL of each enzyme (final amount 0.05 units) in 50 mM Tris-HCl (pH 7.5) containing 1 mM dithiothreitol, 50% glycerol and 0.1 mM EDTA, and kept at 0 °C for 10 min. These inhibitor-enzyme mixtures (8 μl) were added to 16 μL of each of the enzyme standard reaction mixtures, and incubation was carried out at 37 °C for 60 min, except for Taq pol, which was incubated at 74 °C for 60 min. Activity without the inhibitor was considered 100%, and the remaining activity at each concentration of the inhibitor was determined relative to this value. One unit of pol activity was defined as the amount of enzyme that catalyzed the incorporation of 1 nmol of dNTP (i.e., dTTP) into synthetic DNA template-primers in 60 min at 37 °C under the normal reaction conditions for each enzyme.

HL-60 cells = assay: HL-60 cancer cell growth, MTT assay; type: cell-based, human; details: 50 μM, 24 hr
Protocol: To investigate the effects of KA-A derivatives in cultured cells, we used a human cancer cell line, HL-60, human promyelocytic leukemia cells (IFO 050022), supplied by the Health Science Research Resources Bank (Osaka, Japan). The cells were routinely cultured in RPMI 1640 medium supplemented with 10% fetal bovine serum, 100 μg/mL streptomycin, 100 unit/mL penicillin, and 1.6 mg/mL NaHCO3. The cells were cultured at 37 °C in standard medium in a humidified atmosphere of 5% CO2-95% air. The rate of the cancer cell growth of the compound was investigated as follows: high concentrations (10 mM) of the compounds were dissolved in DMSO and stocked. Approximately 1 x 10^4 cells per well were inoculated in 96-well micro plates, and then the compound stock solution was diluted to various concentrations, and applied to each well. After incubation for 24 hr, the survival rate was determined by MTT (3-(4,5-dimethylthiazol-2-yl)-2,5-diphenyl tetrazolium bromide) assay.

[5] = system: double-stranded DNA (dsDNA); assay: Thermal transition (Tm) of double-stranded DNA; type: binding; details: compound 11 at 200 μM; data not shown
Protocol: The Tm of dsDNA with an excess amount of compound 11 (200 μM) was measured using a spectrophotometer equipped with a thermoelectric cell holder.

T1 sequence (Q58D13 whole entry): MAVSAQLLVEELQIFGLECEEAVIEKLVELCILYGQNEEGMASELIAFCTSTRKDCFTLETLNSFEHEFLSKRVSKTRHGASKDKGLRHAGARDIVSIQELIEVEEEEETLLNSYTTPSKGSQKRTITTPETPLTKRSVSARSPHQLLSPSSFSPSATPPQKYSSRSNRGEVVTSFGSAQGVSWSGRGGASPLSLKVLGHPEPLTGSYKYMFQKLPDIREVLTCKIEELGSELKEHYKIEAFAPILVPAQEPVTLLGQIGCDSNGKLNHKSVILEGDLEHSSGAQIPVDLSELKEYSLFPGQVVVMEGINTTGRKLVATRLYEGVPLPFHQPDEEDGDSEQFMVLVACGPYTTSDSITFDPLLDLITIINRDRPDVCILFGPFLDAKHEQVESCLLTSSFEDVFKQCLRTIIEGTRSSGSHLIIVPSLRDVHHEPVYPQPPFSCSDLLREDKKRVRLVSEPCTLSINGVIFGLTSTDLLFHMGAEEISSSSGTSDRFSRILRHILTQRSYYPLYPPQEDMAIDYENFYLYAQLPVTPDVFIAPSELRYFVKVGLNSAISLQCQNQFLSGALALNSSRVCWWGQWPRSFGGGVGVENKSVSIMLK
T1 sequence (A0AAA9THK8 entry or part of it): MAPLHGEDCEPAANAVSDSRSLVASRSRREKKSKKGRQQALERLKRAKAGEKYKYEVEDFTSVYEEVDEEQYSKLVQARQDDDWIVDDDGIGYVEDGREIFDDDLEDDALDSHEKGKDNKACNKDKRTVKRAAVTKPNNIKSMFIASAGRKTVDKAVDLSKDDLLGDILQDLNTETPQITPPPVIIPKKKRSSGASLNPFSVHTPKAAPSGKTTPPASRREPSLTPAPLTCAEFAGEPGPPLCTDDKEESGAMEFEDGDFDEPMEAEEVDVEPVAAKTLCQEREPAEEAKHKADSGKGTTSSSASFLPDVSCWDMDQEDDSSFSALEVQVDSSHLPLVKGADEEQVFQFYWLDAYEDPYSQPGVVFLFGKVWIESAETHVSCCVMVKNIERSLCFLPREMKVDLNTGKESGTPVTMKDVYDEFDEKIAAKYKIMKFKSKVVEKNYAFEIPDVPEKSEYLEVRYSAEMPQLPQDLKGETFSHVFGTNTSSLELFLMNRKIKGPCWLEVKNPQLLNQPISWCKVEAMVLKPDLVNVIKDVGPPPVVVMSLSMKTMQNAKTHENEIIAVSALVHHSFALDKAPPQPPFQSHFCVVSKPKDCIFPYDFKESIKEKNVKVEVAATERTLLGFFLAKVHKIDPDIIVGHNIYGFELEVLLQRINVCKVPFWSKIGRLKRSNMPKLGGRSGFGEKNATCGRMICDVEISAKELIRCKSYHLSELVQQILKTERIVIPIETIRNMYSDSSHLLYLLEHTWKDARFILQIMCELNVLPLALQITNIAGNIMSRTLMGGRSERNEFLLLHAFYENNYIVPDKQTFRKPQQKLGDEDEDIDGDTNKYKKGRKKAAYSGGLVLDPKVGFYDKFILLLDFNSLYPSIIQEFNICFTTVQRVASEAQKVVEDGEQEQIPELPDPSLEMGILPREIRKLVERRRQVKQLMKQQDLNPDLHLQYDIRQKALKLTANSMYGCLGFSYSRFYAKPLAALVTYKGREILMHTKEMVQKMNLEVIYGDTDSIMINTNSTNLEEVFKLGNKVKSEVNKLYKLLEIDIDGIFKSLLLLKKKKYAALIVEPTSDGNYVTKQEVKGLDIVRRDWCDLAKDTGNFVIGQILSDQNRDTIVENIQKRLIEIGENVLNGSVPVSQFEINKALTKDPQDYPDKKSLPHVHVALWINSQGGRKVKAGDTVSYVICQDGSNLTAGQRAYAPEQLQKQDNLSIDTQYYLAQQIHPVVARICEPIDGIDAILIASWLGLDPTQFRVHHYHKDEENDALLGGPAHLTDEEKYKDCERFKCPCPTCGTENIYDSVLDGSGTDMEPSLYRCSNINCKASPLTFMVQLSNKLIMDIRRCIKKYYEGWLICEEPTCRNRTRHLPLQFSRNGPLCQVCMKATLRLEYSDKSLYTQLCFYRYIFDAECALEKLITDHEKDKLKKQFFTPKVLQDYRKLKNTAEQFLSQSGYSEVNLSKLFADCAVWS
T1 sequence (A0JNF4 entry or part of it, further chain): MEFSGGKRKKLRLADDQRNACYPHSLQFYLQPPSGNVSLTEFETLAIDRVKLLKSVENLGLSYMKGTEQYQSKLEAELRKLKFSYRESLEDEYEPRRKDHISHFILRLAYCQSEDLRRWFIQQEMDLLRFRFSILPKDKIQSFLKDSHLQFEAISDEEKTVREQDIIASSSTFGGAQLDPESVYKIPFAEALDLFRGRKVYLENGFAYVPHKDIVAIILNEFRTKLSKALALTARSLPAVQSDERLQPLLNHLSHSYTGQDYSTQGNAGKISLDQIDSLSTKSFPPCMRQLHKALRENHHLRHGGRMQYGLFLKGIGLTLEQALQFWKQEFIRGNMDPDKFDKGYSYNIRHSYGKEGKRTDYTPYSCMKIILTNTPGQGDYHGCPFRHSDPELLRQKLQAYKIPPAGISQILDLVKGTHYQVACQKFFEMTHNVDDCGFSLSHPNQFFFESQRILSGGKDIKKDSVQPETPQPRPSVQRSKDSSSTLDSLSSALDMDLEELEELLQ
T1 sequence (A0A3Q1MF00 entry or part of it, further chain): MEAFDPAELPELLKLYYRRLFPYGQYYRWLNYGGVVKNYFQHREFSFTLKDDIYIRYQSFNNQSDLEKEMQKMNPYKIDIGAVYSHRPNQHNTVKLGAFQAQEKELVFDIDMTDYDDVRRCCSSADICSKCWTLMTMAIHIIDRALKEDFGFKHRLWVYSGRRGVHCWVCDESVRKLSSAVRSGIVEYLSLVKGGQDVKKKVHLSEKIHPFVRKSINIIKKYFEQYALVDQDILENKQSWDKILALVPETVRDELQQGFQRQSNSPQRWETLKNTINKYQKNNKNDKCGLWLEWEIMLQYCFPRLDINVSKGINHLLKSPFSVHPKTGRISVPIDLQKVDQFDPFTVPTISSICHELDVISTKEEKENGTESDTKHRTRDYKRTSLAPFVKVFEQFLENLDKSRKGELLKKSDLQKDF

SMILES: CC(C)=CCC[C@@]1(C)CCC[C@]2(C)[C@@H](CC/C(C)=C/C(=O)O)C(C)=CC[C@@H]12 [compound 1, kohamaic acid A]
- IC50 (Calf DNA polymerase α [1]): 7.6 µM
- IC50 (Rat DNA polymerase β [2]): 8.4 µM

- Inhibitory effect on pol α compared with KA-A (Calf DNA polymerase α [3]; 10 and 100 μM of compound (Figure 2A)): as strong as that of KA-A
- Inhibitory effect on pol β compared with KA-A (Rat DNA polymerase β [4]): as strong as that of KA-A
SMILES: CC1=CC[C@H]2C(C)(C)CCC[C@]2(C)[C@H]1CCCCCCCCC(=O)O (relative stereo) [compound 9, (1S*,4aS*,8aS*)-9-(1,4,4a,5,6,7,8,8a-octahydro-2,5,5,8a-tetramethylnaphthalen-1-yl)nonanoic acid]

SMILES: C[C@@]1(CO)[C@H](O)CC[C@@]2(C)[C@H]1CC[C@H]1C[C@@H]3C[C@@]12CC[C@]3(O)CO [aphidicolin, reference compound]
- IC50 (Calf DNA polymerase α [3]): 40 µM

SMILES: CC1=CC[C@H]2C(C)(C)CCC[C@]2(C)[C@H]1CCCCCCCCCCCCC(=O)O (relative stereo) [compound 10, (1S*,4aS*,8aS*)-13-(1,4,4a,5,6,7,8,8a-octahydro-2,5,5,8a-tetramethylnaphthalen-1-yl)tridecanoic acid]
- Growth inhibitory effect on HL-60 cells, rank among compounds tested (HL-60 cells): third strongest

SMILES: CC[n+]1c(-c2ccccc2)c2cc(N)ccc2c2ccc(N)cc21 [ethidium bromide, reference compound]
- Thermal transition of Tm of dsDNA [5]: clear thermal transition

SMILES: CC1=CC[C@H]2C(C)(C)CCC[C@]2(C)[C@H]1CCCCCCCCCCCCCCCCCCCCC(=O)O (relative stereo) [compound 12, (1S*,4aS*,8aS*)-21-(1,4,4a,5,6,7,8,8a-octahydro-2,5,5,8a-tetramethylnaphthalen-1-yl)henicosanoic acid]
- Growth inhibitory effect on HL-60 cells, rank among compounds tested (HL-60 cells): second
